Where a name gives a salt, the structure may show the parent alone. Read-outs that look alike come from different tables or passages of the source.
Tests used:
Assay in all cases: AK assay 384-well format, Prestwick library screening
[1] = tested on: E. cloacae; format: cell-based, Enterobacter cloacae; details: 50 μM final drug concentration; for fold induction at 50 µM: Enterobacter cloacae, 3 h
[2] = tested on: E. coli; format: cell-based, Escherichia coli; details: 50 μM final drug concentration; for fold induction at 50 µM: Escherichia coli, 3 h
[3] = tested on: K. pneumoniae; format: cell-based, Klebsiella pneumoniae; details: 50 μM final drug concentration; for fold induction at 50 µM: Klebsiella pneumoniae, 3 h
[4] = tested on: P. aeruginosa; format: cell-based, Pseudomonas aeruginosa; details: 50 μM final drug concentration; for fold induction at 50 µM: Pseudomonas aeruginosa, 3 h
[5] = tested on: S. aureus strain USA300-0114; format: cell-based, Staphylococcus aureus; details: 50 μM final drug concentration; for fold induction at 50 µM: Staphylococcus aureus, USA300, 3 h
[6] = tested on: E. faecium; format: cell-based, Enterococcus faecium; details: 50 μM final drug concentration; for fold induction at 50 µM: Enterococcus faecium, 3 h
[7] = tested on: A. baumannii strain 98-37-09; format: cell-based, Acinetobacter baumannii; details: 50 μM final drug concentration; for fold induction at 50 µM: Acinetobacter baumannii, 983709, 3 h
[8] = planktonic, cutoff for positive 3-fold increase, read-out: AK-based Prestwick Library Screening Results, E. cloacae (fold increase in extracellular AK activity)
[9] = planktonic, cutoff for positive 3-fold increase, read-out: AK-based Prestwick Library Screening Results, E. coli (fold increase in extracellular AK activity)
[10] = planktonic, cutoff for positive 3-fold increase, read-out: AK-based Prestwick Library Screening Results, K. pneumoniae (fold increase in extracellular AK activity)
[11] = planktonic, cutoff for positive 3-fold increase, read-out: AK-based Prestwick Library Screening Results, P. aeruginosa (fold increase in extracellular AK activity)
[12] = planktonic, cutoff for positive 3-fold increase, read-out: AK-based Prestwick Library Screening Results, S. aureus (fold increase in extracellular AK activity)
[13] = planktonic, cutoff for positive 3-fold increase, read-out: AK-based Prestwick Library Screening Results, E. faecium (fold increase in extracellular AK activity)
[14] = planktonic, cutoff for positive 3-fold increase, read-out: AK-based Prestwick Library Screening Results, A. baumannii (fold increase in extracellular AK activity)
[15] = 384-well format, cutoff for positive-scoring molecules 3-fold increase, read-out: AK-based Prestwick Library Screening Results, E. cloacae (increase in extracellular AK activity)
[16] = 384-well format, cutoff for positive-scoring molecules 3-fold increase, read-out: AK-based Prestwick Library Screening Results, E. coli (increase in extracellular AK activity)
[17] = 384-well format, cutoff for positive-scoring molecules 3-fold increase, read-out: AK-based Prestwick Library Screening Results, K. pneumoniae (increase in extracellular AK activity)
[18] = 384-well format, cutoff for positive-scoring molecules 3-fold increase, read-out: AK-based Prestwick Library Screening Results, P. aeruginosa (increase in extracellular AK activity)
[19] = 384-well format, cutoff for positive-scoring molecules 3-fold increase, read-out: AK-based Prestwick Library Screening Results, S. aureus (increase in extracellular AK activity)
[20] = 384-well format, cutoff for positive-scoring molecules 3-fold increase, read-out: AK-based Prestwick Library Screening Results, E. faecium (increase in extracellular AK activity)
[21] = 384-well format, cutoff for positive-scoring molecules 3-fold increase, read-out: AK-based Prestwick Library Screening Results, A. baumannii (increase in extracellular AK activity)
[22] = planktonic, cutoff for positive-scoring molecules 3-fold increase, read-out: AK-based Prestwick Library Screening Results, E. cloacae (fold increase in extracellular AK activity)
[23] = planktonic, cutoff for positive-scoring molecules 3-fold increase, read-out: AK-based Prestwick Library Screening Results, E. coli (fold increase in extracellular AK activity)
[24] = planktonic, cutoff for positive-scoring molecules 3-fold increase, read-out: AK-based Prestwick Library Screening Results, K. pneumoniae (fold increase in extracellular AK activity)
[25] = planktonic, cutoff for positive-scoring molecules 3-fold increase, read-out: AK-based Prestwick Library Screening Results, P. aeruginosa (fold increase in extracellular AK activity)
[26] = planktonic, cutoff for positive-scoring molecules 3-fold increase, read-out: AK-based Prestwick Library Screening Results, S. aureus (fold increase in extracellular AK activity)
[27] = planktonic, cutoff for positive-scoring molecules 3-fold increase, read-out: AK-based Prestwick Library Screening Results, E. faecium (fold increase in extracellular AK activity)
[28] = planktonic, cutoff for positive-scoring molecules 3-fold increase, read-out: AK-based Prestwick Library Screening Results, A. baumannii (fold increase in extracellular AK activity)
[29] = cutoff for positive-scoring molecules 3-fold increase

In the case of `c1ccc2[nH]c(-c3cscn3)nc2c1` [Tiabendazole], the fold induction at 50 µM [1, 8] is reported as 1.3, the fold induction at 50 µM [2, 9] is reported as 0.6 and the fold induction at 50 µM [3, 10] is reported as 0.4. The fold induction at 50 µM [4, 11] was 0.6, the fold induction at 50 µM [5, 12] was 0.6 and the fold induction at 50 µM [6, 13] was 0.5. For the same compound, the fold induction at 50 µM [7, 14] was 0.5.
Compound `CC1(C)O[C@@H]2C[C@H]3[C@@H]4C[C@H](F)C5=CC(=O)C=C[C@]5(C)[C@H]4[C@@H](O)C[C@]3(C)[C@]2(C(=O)CO)O1` [Flunisolide] has a fold induction at 50 µM [1, 8] of 0.3, a fold induction at 50 µM [2, 9] of 0.5 and a fold induction at 50 µM [3, 10] of 0.5. The fold induction at 50 µM [4, 11] was 0.3, the fold induction at 50 µM [5, 12] was 0.4 and the fold induction at 50 µM [6, 13] was 0.9. It also gave a fold induction at 50 µM [7, 14] of 0.4.
`C=CCc1ccccc1OCC(O)CNC(C)C` (stereo not shown) [Alprenolol hydrochloride] showed a fold induction at 50 µM [1, 15] of 0.4, a fold induction at 50 µM [2, 16] of 0.6 and a fold induction at 50 µM [3, 17] of 0.5. It also gave a fold induction at 50 µM [4, 18] of 0.5, a fold induction at 50 µM [5, 19] of 0.6 and a fold induction at 50 µM [6, 20] of 0.9. The fold induction at 50 µM [7, 21] was 0.7.
In the case of `CC(C)(Sc1cc(C(C)(C)C)c(O)c(C(C)(C)C)c1)Sc1cc(C(C)(C)C)c(O)c(C(C)(C)C)c1` [Probucol], the fold induction at 50 µM [1, 8] is reported as 1.3, the fold induction at 50 µM [2, 9] is reported as 1.1 and the fold induction at 50 µM [3, 10] is reported as 0.9. It also gave a fold induction at 50 µM [4, 11] of 1.1, a fold induction at 50 µM [5, 12] of 0.6 and a fold induction at 50 µM [6, 13] of 0.9. The fold induction at 50 µM [7, 14] was 1.4.
Compound `O=C(O)Cc1ccccc1Nc1c(Cl)cccc1Cl` [Diclofenac sodium] has a fold induction at 50 µM ([1]; planktonic E. cloacae, cutoff for positive-scoring molecules 3-fold increase, read-out: AK-based Prestwick Library Screening Results, E. cloacae (increase in extracellular AK activity)) of 1.2, a fold induction at 50 µM ([2]; planktonic E. coli, cutoff for positive-scoring molecules 3-fold increase, read-out: AK-based Prestwick Library Screening Results, E. coli (increase in extracellular AK activity)) of 0.9 and a fold induction at 50 µM ([3]; planktonic K. pneumoniae, cutoff for positive-scoring molecules 3-fold increase, read-out: AK-based Prestwick Library Screening Results, K. pneumoniae (increase in extracellular AK activity)) of 0.7. For the same compound, the fold induction at 50 µM ([4]; planktonic P. aeruginosa, cutoff for positive-scoring molecules 3-fold increase, read-out: AK-based Prestwick Library Screening Results, P. aeruginosa (increase in extracellular AK activity)) was 0.9, the fold induction at 50 µM ([5]; planktonic S. aureus, cutoff for positive-scoring molecules 3-fold increase, read-out: AK-based Prestwick Library Screening Results, S. aureus (increase in extracellular AK activity)) was 0.8 and the fold induction at 50 µM ([6]; planktonic E. faecium, cutoff for positive-scoring molecules 3-fold increase, read-out: AK-based Prestwick Library Screening Results, E. faecium (increase in extracellular AK activity)) was 0.9. For the same compound, the fold induction at 50 µM ([7]; planktonic A. baumannii, cutoff for positive-scoring molecules 3-fold increase, read-out: AK-based Prestwick Library Screening Results, A. baumannii (increase in extracellular AK activity)) was 0.8.
For `CC1(C)S[C@@H]2[C@H](NC(=O)[C@H](N)c3ccccc3)C(=O)N2[C@H]1C(=O)O` [Ampicillin trihydrate], the fold induction at 50 µM [1, 15] was 3.5, the fold induction at 50 µM [2, 16] was 12.2 and the fold induction at 50 µM [3, 17] was 0.6. For the same compound, the fold induction at 50 µM [4, 18] was 0.7, the fold induction at 50 µM [5, 19] was 0.5 and the fold induction at 50 µM [6, 20] was 1.1. For the same compound, the fold induction at 50 µM [7, 21] was 1.6.
Compound `CC1(C)O[C@@H]2C[C@H]3[C@@H]4CCC5=CC(=O)CC[C@]5(C)[C@@]4(F)[C@@H](O)C[C@]3(C)[C@]2(C(=O)CCl)O1` [Halcinonide] has a fold induction at 50 µM [1, 22] of 0.8, a fold induction at 50 µM [2, 23] of 0.6 and a fold induction at 50 µM [3, 24] of 0.5. It also gave a fold induction at 50 µM [4, 25] of 0.7, a fold induction at 50 µM [5, 26] of 0.6 and a fold induction at 50 µM [6, 27] of 0.9. The fold induction at 50 µM [7, 28] was 0.7.
In the case of `C[C@]12CC[C@H]3[C@@H](CCC4=CC(=O)CC[C@@]43C)[C@@H]1CC[C@@H]2C(=O)CO` [Deoxycorticosterone], the “AK-based Prestwick Library Screening Results, E. cloacae (fold increase in extracellular AK activity)” value [1, 29] is reported as 1.3, the “AK-based Prestwick Library Screening Results, E. coli (fold increase in extracellular AK activity)” value [2, 29] is reported as 1.2 and the “AK-based Prestwick Library Screening Results, K. pneumoniae (fold increase in extracellular AK activity)” value [3, 29] is reported as 1.2. For the same compound, the “AK-based Prestwick Library Screening Results, P. aeruginosa (fold increase in extracellular AK activity)” value [4, 29] was 1.3, the “AK-based Prestwick Library Screening Results, S. aureus (fold increase in extracellular AK activity)” value [5, 29] was 1.6 and the “AK-based Prestwick Library Screening Results, E. faecium (fold increase in extracellular AK activity)” value [6, 29] was 1.2. For the same compound, the “AK-based Prestwick Library Screening Results, A. baumannii (fold increase in extracellular AK activity)” value [7, 29] was 1.3.
`c1coc(CNc2ncnc3nc[nH]c23)c1` [Compound 6-Furfurylaminopurine, 6-Furfurylaminopurine] showed a fold induction at 50 µM [1, 22] of 0.9, a fold induction at 50 µM [2, 23] of 0.7 and a fold induction at 50 µM [3, 24] of 0.5. For the same compound, the fold induction at 50 µM [4, 25] was 0.7, the fold induction at 50 µM [5, 26] was 0.6 and the fold induction at 50 µM [6, 27] was 0.9. The fold induction at 50 µM [7, 28] was 0.7.
With `CC(C)(C)NC[C@@H](O)COc1cccc2c1CCCC2=O.Cl` [(+)-Levobunolol hydrochloride] the “AK-based Prestwick Library Screening Results, E. cloacae (fold increase in extracellular AK activity)” value [1, 29] was 1.5, the “AK-based Prestwick Library Screening Results, E. coli (fold increase in extracellular AK activity)” value [2, 29] was 1.2 and the “AK-based Prestwick Library Screening Results, K. pneumoniae (fold increase in extracellular AK activity)” value [3, 29] was 0.9. For the same compound, the “AK-based Prestwick Library Screening Results, P. aeruginosa (fold increase in extracellular AK activity)” value [4, 29] was 1.2, the “AK-based Prestwick Library Screening Results, S. aureus (fold increase in extracellular AK activity)” value [5, 29] was 1.3 and the “AK-based Prestwick Library Screening Results, E. faecium (fold increase in extracellular AK activity)” value [6, 29] was 0.9. For the same compound, the “AK-based Prestwick Library Screening Results, A. baumannii (fold increase in extracellular AK activity)” value [7, 29] was 0.9.
`Cn1c(-c2ccc3c(c2)OCO3)cc(=O)c2ccccc21` [Graveoline] showed a fold induction at 50 µM [1, 22] of 1.2, a fold induction at 50 µM [2, 23] of 0.8 and a fold induction at 50 µM [3, 24] of 0.6. It also gave a fold induction at 50 µM [4, 25] of 0.8, a fold induction at 50 µM [5, 26] of 0.7 and a fold induction at 50 µM [6, 27] of 0.8. The fold induction at 50 µM [7, 28] was 0.8.
With Deptropine citrate the “AK-based Prestwick library screening result, E. cloacae (fold increase in extracellular AK activity)” value ([1]; planktonic E. cloacae, […]) was 1.6, the “AK-based Prestwick library screening result, E. coli (fold increase in extracellular AK activity)” value ([2]; planktonic E. coli, […]) was 1.5 and the “AK-based Prestwick library screening result, K. pneumoniae (fold increase in extracellular AK activity)” value ([3]; planktonic K. pneumoniae, […]) was 0.9. The “AK-based Prestwick library screening result, P. aeruginosa (fold increase in extracellular AK activity)” value ([4]; planktonic P. aeruginosa, […]) was 1.0, the “AK-based Prestwick library screening result, S. aureus (fold increase in extracellular AK activity)” value ([5]; planktonic S. aureus, […]) was 1.1 and the “AK-based Prestwick library screening result, E. faecium (fold increase in extracellular AK activity)” value ([6]; planktonic E. faecium, […]) was 1.1. The “AK-based Prestwick library screening result, A. baumannii (fold increase in extracellular AK activity)” value ([7]; planktonic A. baumannii, […]) was 1.3.
In the case of `Cn1c(=O)c2[nH]cnc2n(C)c1=O` [Aminophylline], the fold induction at 50 µM [1, 22] is reported as 0.8, the fold induction at 50 µM [2, 23] is reported as 0.6 and the fold induction at 50 µM [3, 24] is reported as 0.6. The fold induction at 50 µM [4, 25] was 0.8, the fold induction at 50 µM [5, 26] was 0.6 and the fold induction at 50 µM [6, 27] was 0.9. The fold induction at 50 µM [7, 28] was 0.7.
